Molecular target: Neuropeptide FF receptor 1 (Homo sapiens, UniProt Q9GZQ6)
Assay: Competitive antagonist activity at human NPFF1 receptor expressed in COS1 cells assessed as inhibition of NPVF-induced [3H]inositol phosphate accumulation after 2 hrs by liquid scintillation counting

Neuropeptide FF receptor 1, sequence (Q9GZQ6 whole entry): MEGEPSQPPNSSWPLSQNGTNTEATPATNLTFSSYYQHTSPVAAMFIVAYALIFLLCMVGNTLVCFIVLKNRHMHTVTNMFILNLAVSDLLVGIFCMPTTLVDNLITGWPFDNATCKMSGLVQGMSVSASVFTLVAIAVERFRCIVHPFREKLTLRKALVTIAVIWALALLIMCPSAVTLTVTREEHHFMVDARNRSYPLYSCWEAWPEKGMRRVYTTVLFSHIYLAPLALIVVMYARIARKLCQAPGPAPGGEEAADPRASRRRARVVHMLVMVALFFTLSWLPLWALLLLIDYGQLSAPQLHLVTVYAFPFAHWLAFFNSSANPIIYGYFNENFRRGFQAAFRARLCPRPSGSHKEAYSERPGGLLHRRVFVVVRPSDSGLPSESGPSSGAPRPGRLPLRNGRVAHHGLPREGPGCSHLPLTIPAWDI

Kd: 0.0417 µM
SMILES: NC(N)=NN=CC12CC3CC(CC(C3)C1)C2

Reference: BindingDB's records for doi:10.1021/jm300535s (Leipzig University, 2012)
